# Measured values: patent US20240197596A1, “COMPOUNDS USEFUL AS HAIR DYES” (National University of Singapore, priority 2021, published 2024)
# “Also recorded” adds a separate entry of the source. Like-named read-outs stand apart in the source and are kept apart here.
# Key:
# [1] = tested on: THP-1 cells; experiment: h-CLAT assay on THP-1 cells: markers against OECD cut-off, prediction, cell viability; type: cell-based, human; settings: for CD54 and CD86 marker expression against OECD cut-off: 8 doses based on CV75, 24 h
# Experimental: The assay was conducted as per the literature (Toxicol In Vitro, 2006, 20, 767-73). THP-1 cells were cultured in 24-well plates (1×10^6 cells/1 mL/well) with various concentrations of each chemical (N1-N13), +ve control (DNCB), −ve control for 24 h.
# THP-1 cells were cultured in 24-well plates (1×10^6 cells/mL/well) and treated with recommended concentrations of each chemical (N1-N13), positive control (DNCB) or negative control (SLS) for 24 h. THP-1 cells were cultured and treated with 8 doses of N1-N13 based on the CV75 namely, 1.2×CV75, 1×CV75, 1/1.2×CV75, 1/1.2^2×CV75, 1/1.23×CV75, 1/1.24×CV75, 1/1.2^5×CV75 and 1/1.2^6×CV75. After 24 h, cells were transferred to 1.5 mL of microtubes and centrifuged at 450 g, 5 min, 4° C. Supernatant was discarded and cells were washed with 1 mL of FACS buffer (PBS+FBS+HEPES). The cells were centrifuged at 450 g, 5 min, 4° C. 50 μL of Fc block (0.01% of Globlins Cohn fraction II, III) was added and incubated for 10 min at 4° C. The cells were stained with 20 μL APC CD54 (Mouse IgG1, K, BD Biosciences, San Diego, CA, USA), 20 μL FITC CD86 (Mouse IgG1, K, BD Biosciences, San Diego, CA, USA) or their respective isotype controls and incubated for 15 min at room temperature in dark. After incubation, the antibodies were diluted with 200 μl FACS buffer. The cells were washed with 1 mL FACS buffer twice. Further, 200 μL Propidium iodide (PI, 0.625 μg/mL) prepared in FACS buffer was added before the flow cytometry analysis. Flow cytometric analysis was performed with BD LSR Fortessa™ (Becton Dickinson, San Jose, CA, USA) In total, 10,000 living cells were analysed, and data were processed using Flowjo software (v10.6, Ashland, OR, USA). The test concentration providing a cell viability of 75% (CV75) was derived from the dose response curve and was calculated by log-linear interpolation.
# Geometric mean fluorescence intensity (MFI) was measured for CD54^+ and CD86^+ cells separately and percentage relative fluorescence intensity (% RFI), reflective of CD86 and CD54 relative expression was calculated as described below. RFI was not calculated if cell viability fell below 50%.
# All chemicals were tested in three independent experiments. If in two of three independent experiments at any dose exceeded 150% RFI for CD86, or 200% RFI for CD54, the chemicals could be identified as a sensitizer. Otherwise it is identified as a non-sensitizer.
# [2] = tested on: HaCaT cells; experiment: MTT assay on HaCaT cells; type: cell-based; settings: Homo sapiens, 72 h
# Experimental: HaCaT (human, adult, low calcium, high temperature, skin keratinocyte) cell suspension was adjusted to 5×10^3 cells per well and seeded in 96-well plates, then incubated at 37° C. with 5% CO2. After 24 h, 10 mM stock solutions of N1-N13 in autoclaved milli-Q water were prepared and serially diluted concentrations were added to the wells. Each concentration was performed in 6-replicates, and seeded wells with only media and no compound were used as controls while wells with only media were used as blanks. The plate was incubated for 72 h, after which 100 μL of MTT reagent was added and the plate was further incubated for 3 h before adding 100 μL of DMSO. Subsequently, the plate was shaken for 20 min, and then absorbance at 570 nm was determined using a Bio-Tek plate reader.
# [3] = tested on: cysteine heptapeptide (Ac-RFAACAA-COOH) and lysine heptapeptide (Ac-RFAAKAA-COOH); experiment: Direct Peptide Reactivity Assay (DPRA); type: biochemical; settings: from mean peptide depletion
# Experimental: The assay was conducted on N1-N13 in triplicates with the respective solvent used to prepare compound stock solutions as control. A stock concentration of 20 mM was prepared instead of the recommended 100 mM by OECD due to scarcity of compounds. The various constituents of the incubation mixture were freshly prepared to prevent stability issues that could cause variations in results. An incubation mixture with the recommended peptide to test compound ratios of 1:10 for cysteine heptapeptide and 1:50 for lysine heptapeptide (OECD. Test No. 442C: In Chemico Skin Sensitisation 2020) was prepared then incubated at 25° C. for 24 h in a shaking incubator (Toxicol Sci. 2012; 129(2):421-31).
# At 24 h, the incubation mixture was quenched with 75 μL of 95% ACN/H2O containing 200 μM Leucine Enkephalin (Internal Standard). For cysteine DPRA, 100 μL of quenched mixture was spiked into 90 μL of 2% ACN/H2O and 10 μL of freshly prepared 0.016 mM 1,4-Dithiothreitol (DTT) solution. DTT maintains the integrity of thiol groups by preventing the dimerization of thiol groups and degradation of di-adducts to mono-adducts. This second mixture was then incubated at 40° C. for 30 min in a shaking incubator. For lysine DPRA, 10 μL of quenched mixture was spiked into 190 μL of 2% ACN/H2O. All 200 μL of mixtures were transferred into a 96-well plate and sent for analysis with Liquid Chromatography-Tandem Mass Spectrometry (LC-MS/MS).
# [4] = tested on: IL-8; experiment: IL-8 release assay (ELISA) in THP-1 cells; type: cell-based, human; settings: CV75 dose, 24 h
# Experimental: (§1) CV75 values (concentration showing 75% of THP-1 cell survival) were determined as per the procedure described above in section A of this method. The IL-8 and IL-1α release assay was performed as described in Toxicol In Vitro. 2003, 17(3), 311-321. A Chemokine immunosorbent assay Bio-legend ELISA Max kit was used to quantify the levels of available IL-8 and IL-1α protein. The supernatant media of untreated THP-1 cells was treated with standards, test samples N1-N13 and DMSO in 96 well plate and then was recovered after 24 h of culture. IL-8 and IL-1α was measured by ELISA in 96-well microtiter plates according to the manufacturer protocol (Biolegend, ELISA MAX™, Singapore).
# [5] = tested on: IL-1α; experiment: IL-1α release assay (ELISA) in THP-1 cells; type: cell-based, human; settings: 24 h; for release of IL-1α: CV75 dose
# Experimental: as §1
# [6] = HaCaT cells, MTT, read-out: IC50
Compound,CD54 and CD86 marker expression against OECD cut-off [1],"IC50 [2, 6] [µM]",release of IL-8 [4],release of IL-1α [5],also measured
"CCC(=O)COc1cc(N)ccc1N [Compound N11, 1-(2,5-diaminophenoxy)butan-2-one]",did not express the markers at any tested dose level,196,,,sensitizing potential (DPRA) [3]: moderate sensitizers
"N#CCOc1cc(N)ccc1N [Compound N6, 2-(2,5-diaminophenoxy)acetonitrile]",,,did not release significant amounts,did not release significant amounts,"marker induction, times lower than DNCB ([1]; human, 24 h): 3; IC50 ([2]; HaCaT): > 1000 µM"
"COCCOCCOc1cc(N)ccc1N [Compound N5, 2-[2-(2-methoxyethoxy)ethoxy]benzene-1,4-diamine]",failed to induce marker expression above the recommended % RFI cut-off,43.3,slight elevation; also recorded: marginal release,slight elevation; also recorded: marginal release,
"CCOCOc1cc(N)ccc1N [Compound N3, 2-(ethoxymethoxy)benzene-1,4-diamine]",,457,,,"marker induction, times lower than DNCB [1]: 3"
"Nc1ccc(N)c(OCCO)c1 [Compound N9, 2-(2,5-diaminophenoxy)ethan-1-ol]",failed to induce marker expression above the recommended % RFI cut-off,272,,,
"CNCCOc1cc(N)ccc1N [Compound N13, 2-(2-(methylamino)ethoxy)benzene-1,4-diamine]",,120,slight elevation; also recorded: marginal release,slight elevation; also recorded: marginal release,sensitizing potential (DPRA) [3]: moderate sensitizers
"COCCOc1cc(N)ccc1N [Compound N7, 2-(2-methoxyethoxy)benzene-1,4-diamine]",failed to induce marker expression above the recommended % RFI cut-off,33.5,slight elevation; also recorded: marginal release,slight elevation; also recorded: marginal release,sensitizing potential (DPRA) [3]: moderate sensitization
"COCOc1cc(N)ccc1N [Compound N2, 2-(methoxymethoxy)benzene-1,4-diamine]",,297,,,"marker induction, times lower than DNCB [1]: 3"
"CC(O)COc1cc(N)ccc1N (stereo not shown) [Compound N10, 1-(2,5-diaminophenoxy)propan-2-ol]",did not express the markers at any tested dose level,283,,,
"C=C(C)Oc1cc(N)ccc1N [Compound N12, 2-(prop-1-en-2-yloxy)benzene-1,4-diamine]",failed to induce marker expression above the recommended % RFI cut-off,127,slight elevation; also recorded: marginal release,slight elevation; also recorded: marginal release,
"Nc1ccc(N)c(OCOCO)c1 [Compound N8, ((2,5-diaminophenoxy)methoxy)methanol]",failed to induce marker expression above the recommended % RFI cut-off,219,,,
"Nc1ccc(N)c(OCC2CO2)c1 (stereo not shown) [Compound N4, 2-(oxiran-2-ylmethoxy)benzene-1,4-diamine]",did not express the markers at any tested dose level,,,slight release,"IL-1α release, times lower than PPD [5]: 7-8; IC50 ([2]; HaCaT): 578 µM"
"COC(COc1cc(N)ccc1N)OC [Compound N1, 2-(2,2-dimethoxyethoxy)benzene-1,4-diamine]",did not express the markers at any tested dose level,508,,,
